# Tests used:
# [1] = target: T1, porcine pancreatic α-amylase (Sus scrofa, UniProt P00690); assay: α-Amylase inhibition assay; format: biochemical; settings: 10 mg per ml; a/b marks the respective control (Control-1 2.147, Control-2 3.429)
# T1 construct: α-amylase [EC 3.2.1.1) Type VI B: from porcine pancreas]; purchased Sigma Chemical Co., St Louis, Mo., USA; host or cells: porcine pancreas (natural source)
# T1 sequence (P00690 16-511): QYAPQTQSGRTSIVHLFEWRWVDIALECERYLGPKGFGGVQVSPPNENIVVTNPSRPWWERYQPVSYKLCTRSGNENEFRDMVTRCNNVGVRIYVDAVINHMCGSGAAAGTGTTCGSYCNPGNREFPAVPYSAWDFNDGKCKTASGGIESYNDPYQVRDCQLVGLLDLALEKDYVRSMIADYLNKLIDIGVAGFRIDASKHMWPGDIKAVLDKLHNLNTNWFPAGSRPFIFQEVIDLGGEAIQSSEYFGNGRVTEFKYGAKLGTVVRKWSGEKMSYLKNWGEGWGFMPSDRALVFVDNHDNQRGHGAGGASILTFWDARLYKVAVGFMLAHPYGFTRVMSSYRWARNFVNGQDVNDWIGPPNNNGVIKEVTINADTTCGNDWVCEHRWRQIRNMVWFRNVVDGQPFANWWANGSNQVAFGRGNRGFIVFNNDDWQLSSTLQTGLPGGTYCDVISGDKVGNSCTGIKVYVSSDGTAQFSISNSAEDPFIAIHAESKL
# From the text: (§1) Chemicals: α-Glucosidase [(EC 3.2.1.20) Type I: from bakers yeast], rat intestinal acetone powder (as a source of crude intestinal α-glucosidase), α-amylase [EC 3.2.1.1) Type VI B: from porcine pancreas], p-nitrophenyl α-D-glucopyranoside, 3,5-dinitro salicylic acid, soluble potato starch and 1-deoxyrojirimycine, were purchased from Sigma Chemical Co., St Louis, Mo., USA. Other chemicals of analytical grade were procured from indigenous manufacturers.
# a-Amylase Inhibition Assay: The assay method was adopted from Ali et al. (2006) and modified accordingly to suite microplate reading. In brief, 40 μL of test samples (10 mg/mL DMSO) were reconstituted in 160 μL of 20 mM phosphate buffer (pH 6.9) containing 6.7 mM sodium chloride in 2 mL Eppendorf tubes and incubated with 200 μL of porcine pancreatic α-amylase) (4 U/mL prepared in ice cold distilled water) for 5 min. The reaction was started by the addition of 400-μL soluble potato starch solution (0.5% w/v in 20 mM phosphate buffer, pH 6.9). Exactly 3 min after incubation, 400 μL DNS color reagent (1.0 g of 3,5-dinitrosalicylic acid, 30 g of sodium potassium tartrate and 20 mL of 2 N NaOH to a final volume of 100 mL in distilled water) was added. Closed tubes were placed in a water bath (85-90° C.) for 10 min to develop color and cooled thereafter. 50 μL of reaction mixtures was diluted with 175 μL of distilled water in a 96-well microplate. α-Amylase activity was determined by measuring the absorbance of the mixture at 540 nm spectrophotometrically as above. Individual blanks were prepared to correct for the background absorbance due to test samples. In this case DNS solution was added in tubes before addition of substrate. The percentage inhibition of enzyme activity was calculated as above. All the tests were run in duplicate in this assay.
# Wistar rats [2] = assay: Carrageenan induced paw edema model; format: in vivo, rat; settings: Rattus norvegicus, po, 3 h
# Protocol: Male Albino Wistar rats of 150-180 grams were used for the experiments.
# Anti-inflammatory activity of test compounds was evaluated in Wistar rats employing the method of Winter et al (1963) and Diwan et al (1989). Male Wistar rats were used for the study. […] The different test compounds were administered to the animals in the test group at the dose of 100 mg/kg, by oral route. Animals in the standard group received Indomethacin at the dose of 10 mg/kg, by oral route. All test and standard compounds were administered as 1% gum acacia suspension. Rats in the control group received the vehicle solution without drugs. One hour after test drugs administration, rats in all the groups were challenged with 0.1 ml of 1% Carrageenan in the sub plantar region of right hind paw. A zero hour paw volume was measured for all the rats using digital plethysmometer (Ugo Basile, Italy) before the administration of carrageenan for all groups. Paw volumes were again measured 3 hrs after the challenge of Carrageenan. The percent inhibition of paw volume for each rat in treated groups was calculated by comparing with mean paw volume of control group and expressed as mean (±SE) percent inhibition of paw volume for each test. In a preliminary study the compounds that have shown good activity were evaluated for dose response study by using above procedure.
# mice = assay: Adenosine mediated bronchoconstriction and lung inflammation in an allergic mouse model; format: in vivo; design: Total count: unit not given here; settings: BAL fluid cells; 100 mg/kg oral
# Protocol: Thienopyridines were proven as potent cytotoxic and anti-inflammatory agents in the previous experimental results. In cytotoxic MTT assay, activity of these molecules may be due to the involvement of adenosine receptors. Further, to find the bronchodilatory activity of these moieties and to find the involvement of adenosine receptors in their action, non-invasive and invasive adenosine mediated bronchoconstriction and lung inflammation in an allergic mouse model was performed.
# Male mice, 6-8 weeks of age, free of specific pathogens were obtained from National Institute of Nutrition. The animals were maintained on a ragweed-free diet. All experimental protocols used in this study were under a protocol approved by animal ethical committee. Sensitization was performed according to the modified procedure described by Fan et al, 2002. Mice were sensitized on days 1 and 6 with i.p. injections of ragweed allergen (200 μg/200 μl of water for injection). Non-sensitized control animals received only water for injection with the same volumes. Ten days after sensitization, the mice were placed in plexiglas chamber and challenged with 0.5% ragweed or with 0.9% saline as a control for twenty minutes both in the morning and evening for three days. Then mice were divided into different groups consisting of six animals each. The groups including a control without sensitization; a sensitized group and a standard group along with groups of the test molecules were separated. Twenty-four hours after last challenge with ragweed, the mice were given an oral dose of test molecules and theophylline (100 mg/kg body weight) as acacia suspension. Two hours after administration of the oral dose, the mice were challenged with adenosine solution (24 mg/ml). The variation in respiration was recorded after anaesthetizing them with pentobarbitone sodium (0.1 ml 200 mg/ml ip) using kymograph. Then, mice were sacrificed and trachea was cannulated to collect the bronchoalveolar lavage fluid. This was performed by pumping 1 ml phosphate buffered saline into lungs through tracheal cannula and collecting the sample. Analysis of BAL fluid was performed to get the cellular differentials. The BAL fluid was centrifugated at 1500 rpm for six minutes at room temparature. After removing the supernatant, BAL cells were resuspended in 1 ml of phosphate buffered saline. Total cells were then counted manually in a hemocytometer chamber. A differential count of at least 300 cells was made according to the standard morphologic criteria and results were mentioned in table.
# yeast α-glucosidase = target: T2, yeast α-glucosidase (Saccharomyces cerevisiae, UniProt P53341); assay: In-vitro yeast α-glucosidase inhibition assay; format: biochemical, bakers yeast
# T2 construct: α-Glucosidase [(EC 3.2.1.20) Type I: from bakers yeast]
# T2 sequence (P53341 whole entry): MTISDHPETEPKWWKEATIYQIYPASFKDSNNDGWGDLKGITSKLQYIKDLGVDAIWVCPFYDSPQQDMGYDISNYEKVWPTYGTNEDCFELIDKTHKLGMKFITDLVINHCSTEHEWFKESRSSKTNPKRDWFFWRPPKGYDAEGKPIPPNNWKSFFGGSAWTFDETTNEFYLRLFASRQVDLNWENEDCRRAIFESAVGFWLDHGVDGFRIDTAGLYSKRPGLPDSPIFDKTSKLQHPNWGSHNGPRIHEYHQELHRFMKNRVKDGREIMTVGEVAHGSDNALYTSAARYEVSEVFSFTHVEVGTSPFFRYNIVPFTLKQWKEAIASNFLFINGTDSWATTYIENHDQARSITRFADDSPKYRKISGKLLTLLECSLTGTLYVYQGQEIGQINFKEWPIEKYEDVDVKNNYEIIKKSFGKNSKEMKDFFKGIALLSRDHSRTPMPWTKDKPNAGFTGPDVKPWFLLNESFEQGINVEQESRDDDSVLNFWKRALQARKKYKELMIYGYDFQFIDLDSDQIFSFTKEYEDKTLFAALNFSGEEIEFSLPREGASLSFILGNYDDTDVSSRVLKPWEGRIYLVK
# From the text: as §1
# (§2) In-vitro a-Glucosidase Inhibition Assay: Yeast and intestinal a-glucosidase inhibitory activities were determined as per reported methods (Babu et al., 2004; Mc Dougall et al., 2005). Rat intestinal acetone powder in normal saline (100% w/v) was sonicated properly and the supernatant was used as a source of crude intestinal a-glucosidase after centrifugation. In brief, 20 μl, of test samples (100 mg/ml DMSO solution) were reconstituted in 100 μl of 100 mM-Phosphate buffer (pH 6.8) in a 96-well microplate and incubated with 50 μl yeast a-glucosidase (0.76 μ/ml in same buffer) or crude intestinal a-glucosidase for 5 min before 50-μl substrate (5 mM, […] prepared in same buffer) was added. Release of p-nitrophenyol was measured at 405 nm spectrophotometrically (Spectra Mas Plus 384, Molecular Device corporation, Sunnyvale, Calif., USA) 5 min after incubation with substrate, individual blank for test samples were prepared to correct background absorbance where the substrate was replaced with 50 μl of buffer. The control sample contained 20 μl DMSO in place of test samples. The percentage of enzyme inhibition was calculated as (A−B/A)×100 where A is represents the absorbance of the control without test samples, and B represents the absorbance in the presence of test samples. […] The IC50 values were calculated by applying logarithmic regression analysis from the mean inhibitory values.
# [3] = system: crude intestinal α-glucosidase; assay: In-vitro mammalian (rat intestinal) α-glucosidase inhibition assay; format: biochemical; settings: highest concentration 5 mg/ml
# From the text: as §1, §2
# Wistar rats [4] = assay: Antidiabetic activity by starch loaded model; format: in vivo, rat; settings: test compounds 100 mg/kg, Acarbose 10 mg/kg oral
# From the text: Experimental Animals—Wistar rats of either sex were used for the present study. Animals selected for use in the study were of uniform age and body weight. A minimum of 40 rats, from which eventually 20 rats were selected. Their body weights were in the range of 150-180 gm. The health status of the animals was ascertained by a veterinary surgeon. […] Animals were acclimatized for at least two weeks prior to start of the study. The animals were provided with pellet diet manufactured by NIN, HYDERABAD, India and drinking water adlibitum.
# Compound Preparation The required quantity of the synthetic compounds were weighed and made suspension with gum acacia (2%). The test compounds were administered to all rats by per oral route. Acarbose suspension was also prepared in gum acasia suspension and given by oral route.
# Antidiabetic activity by Starch model: The method of Rao et al., 2009;Tiwari et al was employed. Animals were fasted over night (12 hrs). Basal blood glucose levels were estimated for all the animals prior to dosing in test and standard groups. This was designated as “0” min reading. […] After test compounds administration animals in all three groups received Starch aqueous solution (2 gm/kg body weight). Blood glucose levels were monitored at 30, 60, 90 and 120 min after the administration of Starch in all the three groups. The percentage of increase in, blood glucose levels was calculated with respect to the control group at each time point.
Compound,Maltose released [1] [mg/mL],change in vivo at 100 mg/kg (Wistar rats [2]; read-out: % Increase in Paw Volume) [%],inhibition in vivo at 100 mg/kg (Wistar rats [2]; read-out: % Inhibition (paw volume)) [%],Differential count (%) Eosinophils (mice) [%],Differential count (%) Lymphocytes (mice) [%],Differential count (%) Monocytes (mice) [%],Total count (mice),Yeast α-glucosidase enzyme inhibitory activity (in words) (yeast α-glucosidase),Mammalian α Glucosidase Inhibition (Mean ± S.E) [3] [%],"% Increase in glucose, 30 min (Wistar rats [4]; 30 min after starch) [%]","Blood glucose level, 30 min (Wistar rats [4]; 30 min after starch, in mg/dL (unit assumed))","% Increase in glucose, 60 min (Wistar rats [4]; 60 min after starch) [%]","Blood glucose level, 60 min (Wistar rats [4]; 60 min after starch, in mg/dL (unit assumed))","% Increase in glucose, 90 min (Wistar rats [4]; 90 min after starch) [%]","Blood glucose level, 90 min (Wistar rats [4]; 90 min after starch, in mg/dL (unit assumed))","% Increase in glucose, 120 min (Wistar rats [4]; 120 min after starch) [%]","Blood glucose level, 120 min (Wistar rats [4]; 120 min after starch, in mg/dL (unit assumed))","Blood glucose level, 0 min (Wistar rats [4]; basal, prior to dosing, starch 2 gm/kg, in mg/dL (unit assumed))"
"Nc1c2c(nc3sc4c(c13)CCCCC4)CCCC2 [BN-19, 2,3,4,7,8,9,10,11-Octahydro-1H-cyclohepta[4,5]thieno[2,3-b]quinolin-12-Amine]",3.282,90.4 ± 11.4,0,10,80,10,11.5,moderate inhibitory activity,0.0 ± 0.0,,,,,,,,,
"C[C@H]1O[C@H](O[C@H]2[C@H](O)[C@@H](O)[C@@H](O[C@H]3[C@H](O)[C@@H](O)C(O)O[C@@H]3CO)O[C@@H]2CO)[C@H](O)[C@@H](O)[C@@H]1N[C@H]1C=C(CO)[C@@H](O)[C@H](O)[C@H]1O (stereo partly drawn) [Acarbose, reference compound]",,,,,,,,,,23.55,103.17,32.03,110.17,31.78,109.83,30.27,108.62,83.50
